Measurements reported in US10028931B2, “Synergistic compositions for treating microbial infections” (UNIVERSITY OF ROCHESTER, priority 2014, dated 2018).
In brackets after ≈: the same amount, converted by molar mass.

These molecules were tested against T1, RnpA (Staphylococcus aureus, UniProt P0A0H5) (assay: RnpA mRNA degradation activity assay). Details: RnpA mRNA degradation, gel densitometry; read-out: RnpA IC50.
T1 sequence (P0A0H5 1-117): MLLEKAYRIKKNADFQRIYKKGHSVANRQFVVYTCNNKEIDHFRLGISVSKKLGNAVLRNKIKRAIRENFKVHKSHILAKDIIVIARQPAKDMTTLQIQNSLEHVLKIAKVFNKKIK
Type: biochemical
Method: The RNase P inhibitors described herein were tested for activity toward RnpA mRNA degradation activity. Either 1 μg of total S. aureus RNA or 1 pmol of in vitro synthesized spa mRNA was incubated with 20 pmol RnpA at 37° C. for 15 to 30 min in a reaction buffer (50 mM Tris-HCl pH 8.0, 2 mM NaCl, 2 mM MgCl2) in the absence or presence of the indicated compound. Reactions were stopped by adding an equal volume of 2×RNA loading dye (95% formamide, 0.025% SDS, 0.025% bromophenol blue, 0.025% xylene cyanol FF, 0.5 mM EDTA), run on a denaturing 1.0% agarose-0.66 M formaldehyde gel and stained with ethidium bromide. RNA substrates and corresponding degradation products were visualized using a FluorChem 5500 system (Alpha Innotech; San Leandro, Calif.). The inhibitory effects of the test compounds were measured using Image J densitometry software (National Institutes of Health; Bethesda, Md.) to quantify the signal intensity of the RNA band(s) in the negative control (RNA alone), positive control (RnpA+RNA+DMSO), and experimental samples (RnpA+RNA+test compound). The percent enzyme inhibition of test compounds was calculated using the following equation: Percent inhibition=[(experimental signal-positive control)/(negative control signal-positive control signal)]*100.

SMILES	IC50 [µM]
O=C(Cc1ccc(Cl)cc1)NNC(=S)NC(=O)c1ccco1 [ST5642600]	> 500
CC(C)c1ccc(OCC(=O)NNC(=O)c2cc3ccccc3n2C)cc1 [MC-190057]	> 500
COc1cccc(OC)c1C(=O)NC(=S)NNC(=O)c1ccco1 [ST5638707]	> 500
CC(C)CNC(=S)NNC(=O)c1ccc(COc2ccc(C(C)(C)C)cc2)o1 [ST5607017]	70
COc1ccc(OCC(=O)NNC(=S)NC(=O)c2ccc(Br)o2)cc1 [ST5523216]	> 500
O=C(NNC(=S)NC(=O)c1ccco1)c1ccncc1 [ST4145527]	> 500
COc1ccc(C(=O)NNC(=S)NC(=O)c2ccco2)cc1 [ST5254069]	> 500
CCc1ccc(OCc2ccc(C(=O)NNC(=S)NCC(C)C)o2)cc1 [ST5607293]	> 500
CCOc1ccc(C(=O)NC(=S)NNC(=O)COc2ccc(C(C)CC)cc2)cc1 (stereo not shown) [ST5528171]	> 500

These molecules were tested against T2, S. aureus RNase P (RnpA+rnpB) (Staphylococcus aureus, UniProt P0A0H5) (assay: RNase P activity assay (precursor tRNA processing)). Details: ptRNATyr processing, gel densitometry; read-out: RNase P IC50.
T2 sequence (P0A0H5 1-117): T1 sequence (P0A0H5 1-117)
Type: biochemical
Method: The RNase P inhibitors described herein were tested for activity toward RNase P. S. aureus RNase P activity assays were performed in low salt buffer (50 mM Tris-HCl pH 8.0, 5 mM MgCl2) or in high salt buffer (50 mM Tris-HCl pH 8.0, 100 mM MgCl2, 800 mM NH4Cl). For all reactions, ptRNATyr, tRNATyr, or rnpB RNA species were first denatured by heating to 95° C. for 3 minutes, and then slowly cooling the mixtures to room temperature. RNase P was reconstituted by mixing an equal molar ratio of RnpB and RnpA for 15 min at 37° C. Precursor tRNA processing reactions (20 μL) were performed by mixing 1.25 pmol RNase P (RnpA+rnpB), RnpA, or rnpB with an equal volume of 2× low salt buffer or 2× high salt buffer and 10 pmol ptRNATyr. Mixtures were incubated for 15 min at 37° C. Reactions were stopped by adding 20 μL 2×RNA loading dye (95% formamide, 0.025% SDS, 0.025% bromophenol blue, 0.025% xylene cyanol FF, 0.5 mM EDTA), and 30 μL of each sample was electrophoresed in a 7 M urea/8% polyacrylamide gel and was then stained with ethidium bromide (0.5 μg/ml). Where indicated, reactions were repeated in the presence of the indicated amount of putative RnpA inhibitors or dimethyl sulfoxide (DMSO). A FluorChem 5500 imaging system was used to visualize the RNA, and the relative abundance of the mature tRNATyr band in the positive control (RNase P+DMSO) or in samples containing test compounds was measured using Image J densitometry software (NIH). The percent RNase P activity was then calculated using the following calculation: (test compound tRNATyr signal/positive control tRNATyr signal)*100.

SMILES	IC50 [µM]
CC(C)c1ccc(OCC(=O)NNC(=S)NC(=O)c2ccno2)cc1 [MC-190037]	> 500
O=C(Cc1ccc(Cl)cc1)NNC(=S)NC(=O)c1ccco1 [ST5642600]	> 500
CC(C)c1ccc(OCC(=O)NNC(=O)c2cc3ccccc3n2C)cc1 [MC-190057]	70
CC(C)c1ccc(OCC(=O)NNC(=S)NC(=O)c2ccco2)c(Br)c1 [ST5524693]	350
COc1cccc(OC)c1C(=O)NC(=S)NNC(=O)c1ccco1 [ST5638707]	> 500
CC(C)CNC(=S)NNC(=O)c1ccc(COc2ccc(C(C)(C)C)cc2)o1 [ST5607017]	> 500
COc1ccc(OCC(=O)NNC(=S)NC(=O)c2ccc(Br)o2)cc1 [ST5523216]	425
O=C(NNC(=S)NC(=O)c1ccco1)c1ccncc1 [ST4145527]	> 500
COc1ccc(C(=O)NNC(=S)NC(=O)c2ccco2)cc1 [ST5254069]	> 500
CCc1ccc(OCc2ccc(C(=O)NNC(=S)NCC(C)C)o2)cc1 [ST5607293]	> 500
CCOc1ccc(C(=O)NC(=S)NNC(=O)COc2ccc(C(C)CC)cc2)cc1 (stereo not shown) [ST5528171]	280

These molecules were tested on Staphylococcus aureus strain UAMS-1 (assay: Antimicrobial susceptibility testing (MIC, broth microdilution)). Details: S. aureus UAMS-1, Mueller Hinton broth, 37° C., 18 hours.
Type: cell-based
Method: The RNase P inhibitors described herein were tested for antimicrobial activity toward Staphylococcus aureus strain UAMS-1. Individual wells of a 96-well microtiter plate were inoculated with ˜1×10^5 colony-forming units (CFU) of the indicated organism, containing two-fold increasing concentrations (from 0 to 256 μg mL^−1) of the indicated antibiotic or putative RnpA inhibitor, and incubated at 37° C. for 18 hours in Mueller Hinton broth. The MIC was defined as the lowest concentration of antibiotic in which there was no visible bacterial growth in the wells. Minimum bactericidal concentration testing was performed by enumerating the bacterial cells in each of the wells containing treatments at and above the MIC.

SMILES	MIC [µg/mL]
Cc1ccc(C(=O)NNC(=S)NC(=O)c2ccco2)cc1 [MC-190073]	64 (≈ 211 µM)

Same assay, conditions: Staphylococcus aureus, UAMS1, 18 h, S. aureus UAMS-1, Mueller Hinton broth, 37° C., read-out: MIC

SMILES	MIC [µg/mL]
CC(C)c1ccc(OCC(=O)NNC(=S)NC(=O)c2cc3cc(F)ccc3[nH]2)cc1 [MC-190062]	64 (≈ 149 µM)
CCCOc1ccc(OCC(=O)NNC(=S)NC(=O)c2ccco2)cc1 [MC-190072]	128 (≈ 339 µM)
O=C(/C=C/c1ccccc1)NNC(=S)NC(=O)c1ccco1 [MC-190074]	64 (≈ 203 µM)
CC(C)c1ccc(OCC(=O)NNC(=S)NC(=O)c2ccno2)cc1 [MC-190037]	32 (≈ 88.3 µM)
O=C(COc1ccccc1)NNC(=S)NC(=O)c1ccco1 [MC-190079]	> 128
CC(C)c1ccc(/C=C/C(=O)NNC(=S)NC(=O)c2ccco2)cc1 [MC-190078]	64 (≈ 179 µM)
O=C(Cc1ccc(Cl)cc1)NNC(=S)NC(=O)c1ccco1 [ST5642600]	16 (≈ 47.4 µM)
CC(C)c1ccc(OCC(=O)NNC(=S)NC(=O)c2ccc3ccccc3n2)cc1 [MC-190077]	> 128
CC(C)c1ccc(OCC(=O)NNC(=O)c2cc3ccccc3n2C)cc1 [MC-190057]	> 256
CC(C)c1ccc(OCC(=O)NNC(=S)NC(=O)c2ccco2)c(Br)c1 [ST5524693]	8 (≈ 18.2 µM)
CC(C)c1ccc(OCC(=O)NNC(=S)NC(=O)c2cccc(-c3ccccc3)n2)cc1 [MC-190081]	> 128
COc1cccc(OC)c1C(=O)NC(=S)NNC(=O)c1ccco1 [ST5638707]	128 (≈ 366 µM)
CC(C)CNC(=S)NNC(=O)c1ccc(COc2ccc(C(C)(C)C)cc2)o1 [ST5607017]	> 128
COc1ccc(OCC(=O)NNC(=S)NC(=O)c2ccc(Br)o2)cc1 [ST5523216]	32 (≈ 74.7 µM)
O=C(NNC(=S)NC(=O)c1ccco1)c1ccncc1 [ST4145527]	> 128
COc1ccc(C(=O)NNC(=S)NC(=O)c2ccco2)cc1 [ST5254069]	16 (≈ 50.1 µM)
CCc1ccc(OCc2ccc(C(=O)NNC(=S)NCC(C)C)o2)cc1 [ST5607293]	> 128
CCOc1ccc(C(=O)NC(=S)NNC(=O)COc2ccc(C(C)CC)cc2)cc1 (stereo not shown) [ST5528171]	64 (≈ 149 µM)

The molecules below were run on S. aureus strain UAMS-1 (assay: Fractional Inhibitory Concentration testing with mupirocin). Details: combined with mupirocin, S. aureus UAMS-1, Mueller Hinton broth, 18 hours; synergistic FIC≤0.5.
Type: cell-based
Method: The RNase P inhibitors described herein were tested for Fractional Inhibitory Concentration (FIC) in the presence of mupirocin. FIC testing was performed to determine the combined effects of mupirocin and the RnpA inhibitors as described herein. Individual wells of a 96-well microtiter plate were inoculated with 1×10^5 CFU of S. aureus strain UAMS-1 in a Mueller Hinton broth. Each row of the plate contained increasing concentrations of RNPA1000 or RNPA2000 (two-fold increments; 0, 0.004, 0.008, 0.016, 0.03, 0.06, 0.125, 0.25, 0.5, 1, 2, or 4×MIC), whereas each column contained increasing concentrations of the indicated antibiotic (two-fold increments; 0, 0.06, 0.125, 0.25, 0.5, 1, 2, or 4×MIC). Plates were incubated for 18 hours at 37° C., and growth was detected by the unaided eye. The FIC was determined using the following formula: (MIC of Drug A in Combination/MIC of Drug A Alone)+(MIC of Drug B in Combination/MIC of Drug B Alone)=FIC. A synergistic interaction was defined as an FIC value≤0.5, no interaction as an FIC of 0.5-4, or an antagonistic interaction FIC>4.

SMILES	FIC with Mupirocin
CC(C)c1ccc(OCC(=O)NNC(=S)NC(=O)c2cc3cc(F)ccc3[nH]2)cc1 [MC-190062]	0.56
CCCOc1ccc(OCC(=O)NNC(=S)NC(=O)c2ccco2)cc1 [MC-190072]	0.625
Cc1ccc(C(=O)NNC(=S)NC(=O)c2ccco2)cc1 [MC-190073]	0.75
O=C(/C=C/c1ccccc1)NNC(=S)NC(=O)c1ccco1 [MC-190074]	0.625
CC(C)c1ccc(OCC(=O)NNC(=S)NC(=O)c2ccno2)cc1 [MC-190037]	0.625
O=C(COc1ccccc1)NNC(=S)NC(=O)c1ccco1 [MC-190079]	0.75
CC(C)c1ccc(/C=C/C(=O)NNC(=S)NC(=O)c2ccco2)cc1 [MC-190078]	0.625
CC(C)c1ccc(OCC(=O)NNC(=S)NC(=O)c2ccc3ccccc3n2)cc1 [MC-190077]	0.53
CC(C)c1ccc(OCC(=O)NNC(=S)NC(=O)c2ccco2)c(Br)c1 [ST5524693]	0.49
CC(C)c1ccc(OCC(=O)NNC(=S)NC(=O)c2cccc(-c3ccccc3)n2)cc1 [MC-190081]	0.56
